The record followed here is patent publication US4758559A, “Pyrrolo[1,2-a] [4,1]benzoxazepine derivatives useful as calmodulin and histamine inhibitors” (Ciba-Geigy Corporation, priority 1986, dated 1988).

For experiment [1], the system named is rat stomach parietal cells. In words: inhibition of acid secretion in rat stomach parietal cells (14C-aminopyrine accumulation). The format is cell-based. As to conditions: histamine (1 mM) and isobutyl methylxanthine (0.1 mM). The protocol:
Inhibition of acid secretion, indicative of antiulcer activity, can be determined in vitro in rat stomach parietal cells as follows:
Approximately 1×10^6 parietal cells (18-22% enriched) are incubated in a balanced salt solution containing glucose, BSA (bovine serum albumin), 0.1 uCi of ^14 C-aminopyrine, histamine (1 mM), isobutyl methylxanthine (0.1 mM) and the compound to be tested under 95% oxygen at 37° C. for a period of 40 minutes. The cells are then washed, ruptured with distilled water and analyzed by scintillation spectrometry. A decrease in the accumulation of ^14 C-aminopyrine in the cells represents an indirect measure of the inhibition of acid secretion.

A further experiment addresses calmodulin (Bos taurus, UniProt P62157). In words: inhibition of the calmodulin induced activation of bovine c-AMP phosphodiesterase. The experiment is classed as biochemical. To be noted: in vitro; read-out: concentration inhibiting calmodulin-induced activation of phosphodiesterase by 50%. The method, then:
The calmodulin inhibitory properties indicative of the antisecretory activity of said new compounds are determined in vitro by measuring the inhibition of the calmodulin induced activation of bovine c-AMP phosphodiesterase, according to the method described by J. A. Norman et al, Mol. Pharmacology 16, 1089 (1979).

Experiment [2] has as its system diarrhea induced in rats by prostaglandin E2. As to the kind of experiment: inhibition of the diarrhea induced in rats by intraperitoneal prostaglandin E2. To be noted: 10 mg/Kg p.o. in the rat. The format is in vivo. The protocol: The antidiarrheal effect of the compounds of the invention is determined by measuring the inhibition of the diarrhea induced in rats by the intraperitoneal administration of prostaglandin E2.
The test is carried out as follows:
Female Sprague-Dawley rats weighing 200-250 g and fasted for 18 hours are employed. The test compounds are dissolved in dimethylsulfoxide diluted with water to a 30-50% dimethyl sulfoxide concentration and administered orally by gastric lavage in a volume of 1 ml/Kg. Thirty or sixty minutes later, prostaglandin E2 (150 μg) is administered i.p. in a volume of 0.5 ml of water. The decrease in fecal excretion compared to untreated animals is measured for a period of 30 minutes after administration of prostaglandin E2.

Each structure is given as a SMILES string. pIC50: −log10 of the molar value.

As to `CC1(CN2CCC(n3c(=O)[nH]c4ccccc43)CC2)OCc2ccccc2-n2cccc21` (stereo not drawn) [Example 1, 1,3-Dihydro-1-{1-[(4-methyl-4H,6H,-pyrrolo[1,2-a][4,1]-benzoxazepin-4-yl)-methyl]-4-piperidinyl}-2H-benzimidazol-2-one (1:1)maleate], the pIC50 in experiment [1] was roughly 6.52; at calmodulin, roughly 5.52. For the same molecule, the “prostaglandin E2 induced fecal excretion” value in experiment [2] is on record as “reduces prostaglandin E2 induced fecal excretion”.
